Values of other authors as cited in patent US5594100A, “Epitope for prevention of type I diabetes” (Regents of the University of Colorado, priority 1995, dated 1997).

Tested on: islet-specific T cell lines and clones from islet-infiltrating lymphocytes
Conditions: panel of nominally islet-specific lines and clones from female NOD mice

porcine insulin: Porcine insulin (Sigma) used for testing specificity of insulin-specific T cell lines and clones
T cell lines and clones responding to porcine insulin: 22 of 40
percent of T cell lines and clones responding to porcine insulin: 55%
